Source: ChEMBL document CHEMBL6121070, “Covalent-Allosteric Inhibitors: Do We Get the Best of Both Worlds?” (J Med Chem, 2025)
pIC50, pKi: −log10 of the molar value.

Key:
[1] = biological target: T1, Tyrosine-protein phosphatase non-receptor type 1 (Homo sapiens, UniProt P18031); experiment: Inhibition of 6xHis-tagged human PTP1B catalytic domain using pNPP as substrate by […] based assay
T1 sequence (P18031 whole entry): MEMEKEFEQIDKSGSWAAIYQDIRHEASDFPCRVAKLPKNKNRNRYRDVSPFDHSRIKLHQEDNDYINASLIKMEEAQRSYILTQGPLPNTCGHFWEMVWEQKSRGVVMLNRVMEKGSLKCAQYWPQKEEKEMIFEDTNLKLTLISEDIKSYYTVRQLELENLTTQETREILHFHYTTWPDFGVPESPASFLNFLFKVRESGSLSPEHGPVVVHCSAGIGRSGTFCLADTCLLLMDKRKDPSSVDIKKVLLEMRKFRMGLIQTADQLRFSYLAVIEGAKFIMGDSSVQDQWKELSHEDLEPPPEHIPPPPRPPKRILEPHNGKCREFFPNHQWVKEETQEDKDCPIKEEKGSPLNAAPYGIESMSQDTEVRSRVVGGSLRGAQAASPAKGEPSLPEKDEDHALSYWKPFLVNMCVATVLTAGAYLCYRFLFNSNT

[2] = biological target: T2, Tyrosine-protein phosphatase non-receptor type 11 (Homo sapiens, UniProt Q06124); experiment: Binding affinity to SHP2 (unknown origin) assessed as inhibition constant
T2 sequence (Q06124 whole entry): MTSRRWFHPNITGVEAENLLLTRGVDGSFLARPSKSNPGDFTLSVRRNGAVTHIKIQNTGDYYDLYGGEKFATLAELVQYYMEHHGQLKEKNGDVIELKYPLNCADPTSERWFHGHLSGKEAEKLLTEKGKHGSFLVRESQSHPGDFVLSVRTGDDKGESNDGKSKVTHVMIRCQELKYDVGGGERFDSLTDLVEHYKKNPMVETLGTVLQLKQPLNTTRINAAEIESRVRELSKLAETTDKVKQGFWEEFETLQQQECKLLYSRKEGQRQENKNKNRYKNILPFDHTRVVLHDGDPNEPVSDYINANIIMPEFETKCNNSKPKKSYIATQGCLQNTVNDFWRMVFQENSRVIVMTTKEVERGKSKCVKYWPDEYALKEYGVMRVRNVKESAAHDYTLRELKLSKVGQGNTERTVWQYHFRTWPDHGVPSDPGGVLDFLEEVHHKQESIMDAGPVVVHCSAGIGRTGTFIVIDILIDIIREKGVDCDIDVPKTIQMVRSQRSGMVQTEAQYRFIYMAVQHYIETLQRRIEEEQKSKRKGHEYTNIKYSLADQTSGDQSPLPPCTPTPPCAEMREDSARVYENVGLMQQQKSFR

[3] = Covalent allosteric inhibition of full length AKT (unknown origin); parameters: species or system Homo sapiens
[4] = Non-competitive allosteric inhibition of PTP1B (unknown origin) transformed in Escherichia coli BL21; parameters: species or system Homo sapiens

With `C=CC(=O)Nc1ccnc2ccccc12` as the molecule, how does the pIC50 [1] read?
The pIC50 was 4.46.

What about the pKi [2] of the same molecule?
The pKi was 3.55.

With `C=CC(=O)Nc1cccc(C(=O)NC2CCN(Cc3ccc(-c4nc5cc[nH]c(=O)c5cc4-c4ccccc4)cc3)CC2)c1` as the molecule, how does the pKi [3] read?
Its pKi is 8.16.

With `CN(C)CCSSCC(=O)Nc1cc(-c2ccc(F)cc2F)ccc1O` as the molecule, how does the pKi [4] read?
Its pKi is 5.15.
